The source of these data is PubChem BioAssay AID687006 (The Scripps Research Institute Molecular Screening Center, 2013).

Activity calls are given as the source filed them.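 The calls were made as follows: active = over 50% breakup of the Hsp90 and CDC37 protein complex, measured by pull-down and western blot; inactive = complex breakup under 10%.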

The target in this assay is Hsp90 co-chaperone Cdc37 (Homo sapiens) (UniProt Q16543). Briefly: disruption of Hsp90-CDC37 complex, late-stage follow-up, mechanism study for selective HSP90 inhibitor project, cell-based, chemiluminescence western blot, co-immunoprecipitation (AID 687006). The conditions noted are these: MCF7 cells, Hsp90 co-IP CDC37 western blot, 24 h, active compounds read high. (In general: In western blotting, separated proteins are transferred to a membrane and probed.)
Chain of Hsp90 co-chaperone Cdc37 (Homo sapiens) (Q16543 whole entry, looked up): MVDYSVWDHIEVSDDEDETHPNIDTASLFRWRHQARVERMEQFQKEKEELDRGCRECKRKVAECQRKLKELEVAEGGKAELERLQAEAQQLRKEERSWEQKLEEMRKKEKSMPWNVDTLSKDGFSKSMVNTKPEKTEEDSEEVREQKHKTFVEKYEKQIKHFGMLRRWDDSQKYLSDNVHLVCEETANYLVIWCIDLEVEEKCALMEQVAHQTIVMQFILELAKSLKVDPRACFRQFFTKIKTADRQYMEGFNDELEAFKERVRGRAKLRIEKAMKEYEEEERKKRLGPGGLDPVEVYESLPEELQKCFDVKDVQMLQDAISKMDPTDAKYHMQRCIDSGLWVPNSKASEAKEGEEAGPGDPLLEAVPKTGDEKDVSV

As for `O=C(Nc1ccccc1I)c1coc(=O)c(Br)c1`, the complex disruption (high dose (five times the growth IC50) 147 µM, low dose (half the growth IC50) 14.7 µM) was < 10% (inactive).

As for `Cc1cccc(NC(=O)c2coc(=O)c(Br)c2)n1`, for the setting “high dose (five times the growth IC50) 136.5 µM, low dose (half the growth IC50) 13.7 µM”, the complex disruption was < 10% (inactive).

For `O=C(NCc1cccnc1)c1coc(=O)c(Br)c1`, where the note is “high dose (five times the growth IC50) 17.5 µM, low dose (half the growth IC50) 1.8 µM”, the complex disruption is < 10% (inactive).

In the case of `CC(NC(=O)c1coc(=O)c(Br)c1)C1C2CCC3CC(C2)CC31` (centres undefined), the complex disruption (high dose (five times the growth IC50) 9 µM, low dose (half the growth IC50) 0.9 µM) is < 10% (inactive).

As for `COc1ccc(NC(=O)c2coc(=O)c(Br)c2)cc1`, the complex disruption (high dose (five times the growth IC50) 12 µM, low dose (half the growth IC50) 1.2 µM) is > 50%.

With `O=C(Nc1ccc(F)cc1)c1coc(=O)c(Br)c1`, where the note is “high dose (five times the growth IC50) 17 µM, low dose (half the growth IC50) 1.7 µM”, the complex disruption was < 10% (inactive).

Regarding `CC(C)CNC(=O)c1coc(=O)c(Br)c1`, under “high dose (five times the growth IC50) 37.5 µM, low dose (half the growth IC50) 3.8 µM”, the complex disruption is > 50%.

Consider `CCCCCCCCOc1ccc(NC(=O)c2coc(=O)c(Br)c2)cc1`, for which, for the setting “high dose (five times the growth IC50) 64.5 µM, low dose (half the growth IC50) 6.5 µM”, the complex disruption is > 50%.

`O=C(NCCc1ccc(F)cc1)c1coc(=O)c(Br)c1`: the complex disruption (high dose (five times the growth IC50) 10.5 µM, low dose (half the growth IC50) 1.1 µM) was < 10% (inactive).

In the case of `Cc1cc(NC(=O)c2coc(=O)c(Br)c2)ccc1C(C)C`, where the note is “high dose (five times the growth IC50) 44.5 µM, low dose (half the growth IC50) 4.5 µM”, the complex disruption was < 10% (inactive).

Regarding `CCCCOc1cccc(NC(=O)c2coc(=O)c(Br)c2)c1`, the complex disruption (high dose (five times the growth IC50) 114 µM, low dose (half the growth IC50) 11.4 µM) is < 10% (inactive).

Take `O=C(NCc1ccco1)c1coc(=O)c(Br)c1`: under “high dose (five times the growth IC50) 24 µM, low dose (half the growth IC50) 2.4 µM”, the complex disruption is < 10% (inactive).

Take `COc1ccc(NC(=O)c2ccc(NC(=O)c3coc(=O)c(Br)c3)cc2)cc1`: the complex disruption (high dose (five times the growth IC50) 60.5 µM, low dose (half the growth IC50) 6.1 µM) was > 50%.

Consider `CC(=O)c1ccc(NC(=O)c2coc(=O)c(Br)c2)cc1`, for which the complex disruption (high dose (five times the growth IC50) 53.5 µM, low dose (half the growth IC50) 5.4 µM) is > 50%.
